In article PMC3961306, “Comparison of the Cancer Gene Targeting and Biochemical Selectivities of All Targeted Kinase Inhibitors Approved for Clinical Use” (PLoS ONE, 2014):

What was measured:
Assay in all cases: Kinase profiling in a biochemical assay panel (mobility shift assays and ELISA), %-inhibition at 1 μM; selectivity entropy
[1] = target: T1, panel of more than 300 wild-type and mutant kinases (313 kinase panel) (Homo sapiens, UniProt O00418); conditions: kinase EEF2K; compound at 1 μM
T1 sequence (O00418 1-725): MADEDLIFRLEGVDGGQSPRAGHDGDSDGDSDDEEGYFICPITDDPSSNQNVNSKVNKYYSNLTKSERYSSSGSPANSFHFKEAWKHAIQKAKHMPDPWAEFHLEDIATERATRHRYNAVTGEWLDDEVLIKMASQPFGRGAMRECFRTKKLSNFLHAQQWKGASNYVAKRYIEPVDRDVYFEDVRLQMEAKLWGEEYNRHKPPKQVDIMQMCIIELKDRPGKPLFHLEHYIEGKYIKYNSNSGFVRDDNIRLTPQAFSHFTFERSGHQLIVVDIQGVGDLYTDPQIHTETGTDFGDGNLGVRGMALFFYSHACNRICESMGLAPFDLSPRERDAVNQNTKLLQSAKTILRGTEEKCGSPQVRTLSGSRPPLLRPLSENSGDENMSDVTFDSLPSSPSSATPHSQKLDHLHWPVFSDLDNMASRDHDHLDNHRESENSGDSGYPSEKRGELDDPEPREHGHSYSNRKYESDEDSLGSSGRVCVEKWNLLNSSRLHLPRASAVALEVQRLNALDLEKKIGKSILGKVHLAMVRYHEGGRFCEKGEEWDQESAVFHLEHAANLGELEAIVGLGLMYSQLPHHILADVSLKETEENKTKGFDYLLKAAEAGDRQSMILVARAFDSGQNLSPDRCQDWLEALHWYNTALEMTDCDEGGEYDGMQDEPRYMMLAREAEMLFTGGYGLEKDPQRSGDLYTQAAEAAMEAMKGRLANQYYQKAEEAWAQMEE

[2] = target: panel of more than 300 wild-type and mutant kinases (313 kinase panel) (Homo sapiens, UniProt P07332); conditions: kinase FES; compound at 1 μM
[3] = target: panel of more than 300 wild-type and mutant kinases (313 kinase panel) (Homo sapiens, UniProt P10721); conditions: kinase KIT; compound at 1 μM
[4] = target: panel of more than 300 wild-type and mutant kinases (313 kinase panel) (Homo sapiens, UniProt P11802); conditions: kinase CDK4/CycD3; 1 μM compound
[5] = target: panel of more than 300 wild-type and mutant kinases (313 kinase panel) (Homo sapiens, UniProt P17612); conditions: kinase PKACα; 1 μM
[6] = target: T2, panel of more than 300 wild-type and mutant kinases (313 kinase panel) (Homo sapiens, UniProt P36888); conditions: kinase FLT3; compound at 1 μM
T2 sequence (P36888 27-993): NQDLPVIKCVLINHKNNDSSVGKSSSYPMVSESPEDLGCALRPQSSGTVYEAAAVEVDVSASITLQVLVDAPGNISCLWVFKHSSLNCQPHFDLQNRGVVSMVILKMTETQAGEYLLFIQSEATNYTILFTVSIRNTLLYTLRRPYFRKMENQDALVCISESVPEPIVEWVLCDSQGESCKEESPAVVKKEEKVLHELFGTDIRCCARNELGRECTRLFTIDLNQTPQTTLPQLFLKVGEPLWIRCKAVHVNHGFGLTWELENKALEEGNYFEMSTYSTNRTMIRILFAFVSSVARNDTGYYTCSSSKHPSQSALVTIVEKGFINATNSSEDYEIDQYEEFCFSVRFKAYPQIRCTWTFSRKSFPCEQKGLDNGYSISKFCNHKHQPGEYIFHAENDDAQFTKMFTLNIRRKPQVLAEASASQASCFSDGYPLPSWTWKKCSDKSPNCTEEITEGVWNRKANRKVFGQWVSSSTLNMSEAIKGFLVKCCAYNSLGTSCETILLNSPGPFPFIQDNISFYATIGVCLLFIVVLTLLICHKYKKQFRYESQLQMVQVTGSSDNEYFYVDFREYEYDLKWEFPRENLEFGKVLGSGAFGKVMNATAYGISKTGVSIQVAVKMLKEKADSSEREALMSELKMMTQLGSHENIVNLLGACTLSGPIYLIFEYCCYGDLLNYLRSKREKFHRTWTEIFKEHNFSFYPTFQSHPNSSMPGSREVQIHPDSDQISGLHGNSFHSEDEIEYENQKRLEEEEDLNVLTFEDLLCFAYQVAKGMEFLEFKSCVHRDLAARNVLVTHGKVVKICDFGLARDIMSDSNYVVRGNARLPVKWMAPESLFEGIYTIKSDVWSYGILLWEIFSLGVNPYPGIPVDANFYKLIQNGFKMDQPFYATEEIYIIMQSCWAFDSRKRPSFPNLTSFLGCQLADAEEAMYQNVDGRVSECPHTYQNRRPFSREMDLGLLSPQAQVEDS

[7] = target: panel of more than 300 wild-type and mutant kinases (313 kinase panel) (Homo sapiens, UniProt P49761); conditions: kinase CLK3; compound at 1 μM
[8] = target: panel of more than 300 wild-type and mutant kinases (313 kinase panel) (Homo sapiens, UniProt Q15303); conditions: kinase HER4; compound at 1 μM
[9] = target: panel of more than 300 wild-type and mutant kinases (313 kinase panel) (Homo sapiens, UniProt Q16816); conditions: kinase PHKG1; 1 μM
[10] = target: panel of more than 300 wild-type and mutant kinases (313 kinase panel) (Homo sapiens, UniProt Q7KZI7); conditions: kinase MARK2; compound at 1 μM

Sequence of panel of more than 300 wild-type and mutant kinases (313 kinase panel) (Homo sapiens, UniProt Q15303) (Q15303 26-1308, change not shown): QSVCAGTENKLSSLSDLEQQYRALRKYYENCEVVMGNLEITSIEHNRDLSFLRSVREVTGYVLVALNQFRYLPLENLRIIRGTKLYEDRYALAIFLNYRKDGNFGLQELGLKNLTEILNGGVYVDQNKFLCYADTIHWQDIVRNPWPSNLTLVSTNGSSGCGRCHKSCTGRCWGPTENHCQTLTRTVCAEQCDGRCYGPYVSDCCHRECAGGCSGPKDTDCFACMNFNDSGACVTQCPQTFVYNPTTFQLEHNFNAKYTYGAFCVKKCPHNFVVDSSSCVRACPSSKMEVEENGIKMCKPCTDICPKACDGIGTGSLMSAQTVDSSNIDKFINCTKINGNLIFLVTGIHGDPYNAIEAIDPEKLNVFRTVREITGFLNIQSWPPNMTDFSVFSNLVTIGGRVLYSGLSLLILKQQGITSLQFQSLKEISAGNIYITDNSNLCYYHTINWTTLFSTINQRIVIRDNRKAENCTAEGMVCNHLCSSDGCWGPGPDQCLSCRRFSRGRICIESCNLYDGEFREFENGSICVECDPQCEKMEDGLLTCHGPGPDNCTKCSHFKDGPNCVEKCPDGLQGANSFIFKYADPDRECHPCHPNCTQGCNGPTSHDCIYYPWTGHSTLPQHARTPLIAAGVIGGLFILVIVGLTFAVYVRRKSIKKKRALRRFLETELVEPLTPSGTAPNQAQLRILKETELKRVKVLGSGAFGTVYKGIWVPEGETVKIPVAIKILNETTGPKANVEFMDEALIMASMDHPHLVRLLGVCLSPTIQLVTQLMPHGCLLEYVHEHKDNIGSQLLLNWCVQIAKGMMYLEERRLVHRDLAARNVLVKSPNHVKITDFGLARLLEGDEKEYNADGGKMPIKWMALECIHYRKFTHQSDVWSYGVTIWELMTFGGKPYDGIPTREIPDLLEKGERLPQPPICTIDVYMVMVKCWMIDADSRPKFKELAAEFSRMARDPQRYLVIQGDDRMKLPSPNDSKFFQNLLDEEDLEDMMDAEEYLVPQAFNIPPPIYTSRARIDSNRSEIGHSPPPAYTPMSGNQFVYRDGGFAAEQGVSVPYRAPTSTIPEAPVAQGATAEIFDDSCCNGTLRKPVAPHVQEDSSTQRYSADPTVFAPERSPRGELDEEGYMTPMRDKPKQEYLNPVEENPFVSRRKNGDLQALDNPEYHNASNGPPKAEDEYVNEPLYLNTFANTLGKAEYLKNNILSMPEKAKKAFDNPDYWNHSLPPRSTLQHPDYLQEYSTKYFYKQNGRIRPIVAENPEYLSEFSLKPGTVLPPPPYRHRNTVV
Sequence of panel of more than 300 wild-type and mutant kinases (313 kinase panel) (Homo sapiens, UniProt P10721) (P10721 26-976, change not shown): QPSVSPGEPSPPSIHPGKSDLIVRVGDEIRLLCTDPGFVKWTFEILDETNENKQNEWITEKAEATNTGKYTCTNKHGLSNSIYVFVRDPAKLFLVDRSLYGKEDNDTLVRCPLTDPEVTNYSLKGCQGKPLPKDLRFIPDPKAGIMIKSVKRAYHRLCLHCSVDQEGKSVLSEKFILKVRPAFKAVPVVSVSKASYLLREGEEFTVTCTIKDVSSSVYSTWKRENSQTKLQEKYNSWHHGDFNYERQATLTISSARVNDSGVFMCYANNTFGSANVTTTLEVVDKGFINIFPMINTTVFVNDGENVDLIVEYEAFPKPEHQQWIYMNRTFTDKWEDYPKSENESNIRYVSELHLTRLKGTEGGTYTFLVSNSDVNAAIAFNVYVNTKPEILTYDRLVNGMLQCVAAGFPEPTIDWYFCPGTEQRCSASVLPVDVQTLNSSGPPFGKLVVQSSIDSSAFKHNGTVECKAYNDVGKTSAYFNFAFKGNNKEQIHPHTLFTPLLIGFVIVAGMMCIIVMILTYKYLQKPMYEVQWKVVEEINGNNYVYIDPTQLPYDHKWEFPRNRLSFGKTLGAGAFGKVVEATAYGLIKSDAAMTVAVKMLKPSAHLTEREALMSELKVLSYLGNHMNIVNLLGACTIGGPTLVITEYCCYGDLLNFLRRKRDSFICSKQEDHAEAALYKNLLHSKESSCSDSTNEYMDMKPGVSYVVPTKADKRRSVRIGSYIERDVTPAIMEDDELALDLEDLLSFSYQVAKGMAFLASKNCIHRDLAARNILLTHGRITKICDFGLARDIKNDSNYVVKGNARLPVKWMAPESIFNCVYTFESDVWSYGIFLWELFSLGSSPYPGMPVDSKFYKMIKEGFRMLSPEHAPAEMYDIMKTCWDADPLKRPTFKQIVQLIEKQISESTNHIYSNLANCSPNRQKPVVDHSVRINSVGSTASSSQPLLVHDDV
Sequence of panel of more than 300 wild-type and mutant kinases (313 kinase panel) (Homo sapiens, UniProt Q16816) (Q16816 whole entry, change not shown): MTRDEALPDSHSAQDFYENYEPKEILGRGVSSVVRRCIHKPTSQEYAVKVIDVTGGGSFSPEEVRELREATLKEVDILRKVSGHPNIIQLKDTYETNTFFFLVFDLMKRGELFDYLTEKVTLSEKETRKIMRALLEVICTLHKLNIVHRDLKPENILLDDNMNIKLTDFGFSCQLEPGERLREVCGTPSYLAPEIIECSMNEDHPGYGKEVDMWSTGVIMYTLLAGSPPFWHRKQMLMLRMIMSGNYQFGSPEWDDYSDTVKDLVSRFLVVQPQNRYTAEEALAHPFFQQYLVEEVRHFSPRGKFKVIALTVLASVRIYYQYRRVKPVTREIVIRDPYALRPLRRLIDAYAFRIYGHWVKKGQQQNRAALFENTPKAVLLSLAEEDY
Sequence of panel of more than 300 wild-type and mutant kinases (313 kinase panel) (Homo sapiens, UniProt P11802) (P11802 whole entry, change not shown): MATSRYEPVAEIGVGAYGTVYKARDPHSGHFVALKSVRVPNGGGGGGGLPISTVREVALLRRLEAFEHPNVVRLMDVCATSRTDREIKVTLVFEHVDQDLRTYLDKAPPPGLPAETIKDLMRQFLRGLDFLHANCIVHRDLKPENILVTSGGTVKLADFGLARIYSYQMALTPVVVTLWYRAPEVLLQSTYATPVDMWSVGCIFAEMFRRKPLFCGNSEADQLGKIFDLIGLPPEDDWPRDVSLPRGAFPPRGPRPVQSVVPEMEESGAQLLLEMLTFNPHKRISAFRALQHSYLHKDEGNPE
Sequence of panel of more than 300 wild-type and mutant kinases (313 kinase panel) (Homo sapiens, UniProt P49761) (P49761 whole entry, change not shown): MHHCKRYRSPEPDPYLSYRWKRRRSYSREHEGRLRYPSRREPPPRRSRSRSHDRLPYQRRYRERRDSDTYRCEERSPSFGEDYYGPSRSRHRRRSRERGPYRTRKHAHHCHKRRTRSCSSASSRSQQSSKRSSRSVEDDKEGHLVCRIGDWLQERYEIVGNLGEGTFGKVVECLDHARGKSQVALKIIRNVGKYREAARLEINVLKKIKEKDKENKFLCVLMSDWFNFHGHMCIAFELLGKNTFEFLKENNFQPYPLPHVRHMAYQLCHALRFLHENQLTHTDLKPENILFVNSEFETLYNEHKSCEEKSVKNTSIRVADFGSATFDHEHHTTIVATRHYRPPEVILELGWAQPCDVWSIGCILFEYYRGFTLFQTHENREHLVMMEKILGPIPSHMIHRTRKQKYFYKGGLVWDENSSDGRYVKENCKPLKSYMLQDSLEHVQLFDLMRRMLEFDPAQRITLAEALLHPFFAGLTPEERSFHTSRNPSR

Row | Structure (SMILES) | %-inhibition of EEF2K [1] | %-inhibition of FES [2] | %-inhibition of KIT [3] | %-inhibition, CDK4/CycD3 [4] | %-inhibition of PKACα [5] | %-inhibition of FLT3 [6] | %-inhibition of CLK3 [7] | %-inhibition of HER4 [8] | %-inhibition of PHKG1 [9] | %-inhibition of MARK2 [10]
1 | CNC(=O)c1cc(Oc2ccc(NC(=O)Nc3ccc(Cl)c(C(F)(F)F)c3)c(F)c2)ccn1 [regorafenib] | -11% | -0.247% | 100% | 6.52% | -5.47% | 68% | -15% | 3.81% | 8% | 2.17%
2 | CO[C@H]1C[C@@H]2CC[C@@H](C)[C@@](O)(O2)C(=O)C(=O)N2CCCC[C@H]2C(=O)O[C@H]([C@H](C)C[C@@H]2CC[C@@H](OCCO)[C@H](OC)C2)CC(=O)[C@H](C)/C=C(\C)[C@@H](O)[C@@H](OC)C(=O)[C@H](C)C[C@H](C)/C=C/C=C/C=C/1C [everolimus] | -14% | -2.38% | -10% | -9% | -6% | 2.25% | -9% | -7% | 0.522% | -6%
3 | CC(=O)Nc1cccc(-n2c(=O)n(C3CC3)c(=O)c3c(Nc4ccc(I)cc4F)n(C)c(=O)c(C)c32)c1 [trametinib] | -3.43% | -1.55% | -0.648% | 5.62% | 8.52% | 20% | -0.0684% | 2.34% | -2.24% | -6%
4 | CO[C@H]1C[C@@H]2CC[C@@H](C)[C@@](O)(O2)C(=O)C(=O)N2CCCC[C@H]2C(=O)O[C@H]([C@H](C)C[C@@H]2CC[C@@H](OC(=O)C(C)(CO)CO)[C@H](OC)C2)CC(=O)[C@H](C)/C=C(\C)[C@@H](O)[C@@H](OC)C(=O)[C@H](C)C[C@H](C)/C=C/C=C/C=C/1C [temsirolimus] | -6% | -4.68% | -8% | -2.83% | -6% | 5% | -3% | -5.46% | 1.57% | -6%
